Target: T1, ChrHI (ChrH with ChrI) (Chryseobacterium sp. JM1, UniProt A0A086ASD2)
T1 construct: gene IW22_14845
Experiment: MALDI-TOF MS of in vitro reaction products after LysC digestion
Assay type: biochemical
Conditions: precursor peptide ChrA as co-substrate, DTT, aerobic, iron-containing enzyme; methyl donor; also run with 13CD3-SAM (labelled compound)

T1 sequence (A0A086ASD2 entry or part of it): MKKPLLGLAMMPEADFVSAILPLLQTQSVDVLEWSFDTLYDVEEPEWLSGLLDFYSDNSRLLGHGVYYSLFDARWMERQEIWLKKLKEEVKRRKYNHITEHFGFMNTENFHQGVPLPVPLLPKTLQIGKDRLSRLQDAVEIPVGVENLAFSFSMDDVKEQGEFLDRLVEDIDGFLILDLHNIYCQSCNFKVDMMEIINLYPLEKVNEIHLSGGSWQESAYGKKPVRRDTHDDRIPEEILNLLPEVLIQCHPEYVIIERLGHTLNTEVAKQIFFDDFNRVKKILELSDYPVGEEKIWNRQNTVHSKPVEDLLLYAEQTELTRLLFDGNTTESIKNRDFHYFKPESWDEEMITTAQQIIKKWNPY

C[S+](CC[C@H](N)C(=O)O)C[C@H]1O[C@@H](n2cnc3c(N)ncnc32)[C@H](O)[C@@H]1O (stereo partly shown) [SAM, S-adenosylmethionine]
MALDI-TOF MS of in vitro reaction products after LysC digestion: SAM is the methyl donor in the posttranslational modification of ChrA by ChrHI
